Measured values taken from ChEMBL document CHEMBL3739322, “Novel oxime-bearing coumarin derivatives act as potent Nrf2/ARE activators in vitro and in mouse model” (Eur J Med Chem, 2015).

System: not listed separately
Assay: Cytotoxicity against human HSC3 cells after 24 hrs by MTT assay
Assay type: cell-based
Conditions: hsc-3, 24 h

SMILES | Activity
O=c1ccc2cc(OC/C(=N\O)c3ccccc3)ccc2o1 | Non-toxic
O=c1oc2ccccc2cc1OC/C(=N\O)c1ccc(F)cc1 | Non-toxic

Target: T1, Nuclear factor erythroid 2-related factor 2 (Homo sapiens) (UniProt Q16236)
T1 sequence (whole entry): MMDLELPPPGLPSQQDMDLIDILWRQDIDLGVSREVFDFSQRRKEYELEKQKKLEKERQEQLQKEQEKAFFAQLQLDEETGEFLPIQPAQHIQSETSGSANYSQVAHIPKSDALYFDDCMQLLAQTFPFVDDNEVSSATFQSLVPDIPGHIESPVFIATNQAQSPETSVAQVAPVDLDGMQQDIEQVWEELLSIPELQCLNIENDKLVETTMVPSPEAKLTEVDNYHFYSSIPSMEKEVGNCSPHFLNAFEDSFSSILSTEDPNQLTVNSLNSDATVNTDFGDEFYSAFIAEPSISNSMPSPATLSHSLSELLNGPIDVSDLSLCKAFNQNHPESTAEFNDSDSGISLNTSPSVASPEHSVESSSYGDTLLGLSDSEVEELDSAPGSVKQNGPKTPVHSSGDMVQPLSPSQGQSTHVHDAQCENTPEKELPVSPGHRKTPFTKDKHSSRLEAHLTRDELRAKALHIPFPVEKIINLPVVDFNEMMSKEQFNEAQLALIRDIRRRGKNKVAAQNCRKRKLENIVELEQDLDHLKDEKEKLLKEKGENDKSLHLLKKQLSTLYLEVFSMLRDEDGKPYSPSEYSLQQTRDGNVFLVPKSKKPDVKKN
Assay: Activation of Nrf2 in human HSC3-ARE9 cells assessed as increase of ARE-mediated GCLC mRNA expression at 50 uM after 24 hrs by RT-PCR analysis relative to control
Assay type: cell-based
Conditions: not given

SMILES | fold change (FC)
CC(C)(C)c1cc(O)ccc1O [E319] | 2

Target: T1, Nuclear factor erythroid 2-related factor 2 (Homo sapiens)
Assay: Activation of Nrf2 in human HSC3-ARE9 cells assessed as increase of ARE-mediated AKR1C1 mRNA expression at 50 uM after 24 hrs by RT-PCR analysis relative to control
Assay type: cell-based
Conditions: not given

SMILES | fold change (FC)
CC(C)(C)c1cc(O)ccc1O [E319] | 2.3

Target: T1, Nuclear factor erythroid 2-related factor 2 (Homo sapiens)
Assay: Activation of Nrf2 in human HSC3-ARE9 cells assessed as increase of ARE-mediated Prx1 mRNA expression at 50 uM after 24 hrs by RT-PCR analysis relative to control
Assay type: cell-based
Conditions: not given

SMILES | fold change (FC)
CC(C)(C)c1cc(O)ccc1O [E319] | 1.1

Target: T1, Nuclear factor erythroid 2-related factor 2 (Homo sapiens)
Assay: Activation of Nrf2 in human HSC3-ARE9 cells assessed as increase of ARE-mediated luciferase expression at 50 uM after 24 hrs relative to control
Assay type: cell-based
Conditions: not given

SMILES | fold change (FC)
CC(=O)COc1ccc2oc(=O)ccc2c1 | 1.03
CC(=O)COc1ccc2ccc(=O)oc2c1 | 1.09
O=C(COc1ccc2ccc(=O)oc2c1)c1ccc(-c2ccccc2)cc1 | 0.85
O=c1ccc2cc(OC/C(=N\O)c3ccc(-c4ccccc4)cc3)ccc2o1 | 1.5
C/C(COc1cc(=O)oc2ccccc12)=N\O | 1.37
COc1ccc(/C(COc2cc(=O)oc3ccccc23)=N/O)cc1 | 1.76
CC(C)(C)c1cc(O)ccc1O [E319] | 2.01
O=C(COc1ccc2oc(=O)ccc2c1)Nc1ccccc1 | 2.08
O=c1ccc2ccc(OC/C(=N\O)c3ccc(F)cc3)cc2o1 | 1.32
O=C(COc1cc2ccccc2oc1=O)Nc1ccccc1 | 2.51
O=c1ccc2ccc(OC/C(=N\O)c3ccc(-c4ccccc4)cc3)cc2o1 | 0.9
O=c1ccc2cc(OC/C(=N\O)c3ccc(F)cc3)ccc2o1 | 2.32
COc1ccc(NC(=O)COc2ccc3ccc(=O)oc3c2)cc1 | 0.98
O=c1ccc2ccc(O)cc2o1 [UMBELLIFERONE] | 0.98
COc1ccc(NC(=O)COc2ccc3oc(=O)ccc3c2)cc1 | 0.89
O=C(COc1cc(=O)oc2ccccc12)c1ccc2ccccc2c1 | 1.52
COc1ccc(/C(COc2ccc3ccc(=O)oc3c2)=N/O)cc1 | 1.28
O=C(COc1cc(=O)oc2ccccc12)Nc1ccc(-c2ccccc2)cc1 | 1.17
O=C(COc1ccc2oc(=O)ccc2c1)Nc1ccc(F)cc1 | 0.95
O=C(COc1ccc2ccc(=O)oc2c1)Nc1ccc2ccccc2c1 | 1.06
O=C(COc1ccc2oc(=O)ccc2c1)c1ccc(-c2ccccc2)cc1 | 0.85
COc1ccc(/C(COc2cc3ccccc3oc2=O)=N/O)cc1 | 1.49
O=C(COc1ccc2ccc(=O)oc2c1)Nc1ccc(F)cc1 | 1.16
COc1ccc(C(=O)COc2cc3ccccc3oc2=O)cc1 | 1.54

SMILES | fold change (FC)
O=C(COc1ccc2oc(=O)ccc2c1)Nc1ccc(-c2ccccc2)cc1 | 0.95
O=c1ccc2ccc(OC/C(=N\O)c3ccc4ccccc4c3)cc2o1 | 1.04
O=c1ccc2cc(O)ccc2o1 [6-HYDROXYCOUMARIN] | 0.99
O=C(COc1cc2ccccc2oc1=O)c1ccc(F)cc1 | 1.64
O=C(COc1ccc2oc(=O)ccc2c1)c1ccc2ccccc2c1 | 0.61
O=C(COc1ccc2ccc(=O)oc2c1)Nc1ccc(-c2ccccc2)cc1 | 1.09
O=C(COc1cc2ccccc2oc1=O)Nc1ccc2ccccc2c1 | 1.13
O=C(COc1cc(=O)oc2ccccc12)c1ccc(F)cc1 | 1.26
O=c1oc2ccccc2cc1OC/C(=N\O)c1ccc(-c2ccccc2)cc1 | 1.44
O=C(COc1ccc2ccc(=O)oc2c1)Nc1ccccc1 | 2.27
O=c1cc(OC/C(=N\O)c2ccccc2)c2ccccc2o1 | 1.35
O=C(COc1cc2ccccc2oc1=O)c1ccccc1 | 1.72
O=C(COc1cc(=O)oc2ccccc12)c1ccc(-c2ccccc2)cc1 | 0.42
O=C(COc1ccc2ccc(=O)oc2c1)c1ccc(F)cc1 | 1.14
O=C(COc1ccc2oc(=O)ccc2c1)Nc1ccc2ccccc2c1 | 0.91
O=C(COc1cc2ccccc2oc1=O)Nc1ccc(-c2ccccc2)cc1 | 1.22
CC(=O)COc1cc2ccccc2oc1=O | 0.92
C/C(COc1ccc2oc(=O)ccc2c1)=N\O | 1.64
O=c1oc2ccccc2cc1OC/C(=N\O)c1ccc2ccccc2c1 | 1.31
COc1ccc(/C(COc2ccc3oc(=O)ccc3c2)=N/O)cc1 | 1.33
COc1ccc(C(=O)COc2cc(=O)oc3ccccc23)cc1 | 1.36
O=c1ccc2cc(OC/C(=N\O)c3ccccc3)ccc2o1 | 3.02
O=c1oc2ccccc2cc1OC/C(=N\O)c1ccc(F)cc1 | 3.25
O=c1cc(O)c2ccccc2o1 [4-HYDROXYCOUMARINS] | 0.84

SMILES | fold change (FC)
O=C(COc1cc2ccccc2oc1=O)c1ccc(-c2ccccc2)cc1 | 0.98
COc1ccc(C(=O)COc2ccc3oc(=O)ccc3c2)cc1 | 0.82
COc1ccc(C(=O)COc2ccc3ccc(=O)oc3c2)cc1 | 1.07
O=c1cc(OC/C(=N\O)c2ccc(F)cc2)c2ccccc2o1 | 1.67
O=c1ccc2cc(OC/C(=N\O)c3ccc4ccccc4c3)ccc2o1 | 1.46
O=C(COc1cc2ccccc2oc1=O)c1ccc2ccccc2c1 | 0.98
O=C(COc1ccc2ccc(=O)oc2c1)c1ccccc1 | 1.93
CC(=O)COc1cc(=O)oc2ccccc12 | 0.79
O=C(COc1cc(=O)oc2ccccc12)Nc1ccc2ccccc2c1 | 1.37
O=c1oc2ccccc2cc1O [3-HYDROXYCOUMARIN] | 0.94
O=C(COc1cc2ccccc2oc1=O)Nc1ccc(F)cc1 | 1.34
O=c1cc(OC/C(=N\O)c2ccc(-c3ccccc3)cc2)c2ccccc2o1 | 1.32
O=C(COc1cc(=O)oc2ccccc12)Nc1ccc(F)cc1 | 1.11
O=c1ccc2ccc(OC/C(=N\O)c3ccccc3)cc2o1 | 2.16
COc1ccc(NC(=O)COc2cc3ccccc3oc2=O)cc1 | 0.95
C/C(COc1ccc2ccc(=O)oc2c1)=N\O | 1.68
O=C(COc1ccc2ccc(=O)oc2c1)c1ccc2ccccc2c1 | 0.17
O=c1cc(OC/C(=N\O)c2ccc3ccccc3c2)c2ccccc2o1 | 1.43
COc1ccc(NC(=O)COc2cc(=O)oc3ccccc23)cc1 | 1.34
C/C(COc1cc2ccccc2oc1=O)=N\O | 1.63
O=C(COc1ccc2oc(=O)ccc2c1)c1ccccc1 | 2.54
O=C(COc1ccc2oc(=O)ccc2c1)c1ccc(F)cc1 | 1.58
O=C(COc1cc(=O)oc2ccccc12)Nc1ccccc1 | 1.06
O=C(COc1cc(=O)oc2ccccc12)c1ccccc1 | 1.98

System: not listed separately
Assay: Antioxidant activity assessed as DPPH radical scavenging activity
Assay type: physicochemical
Conditions: not given

SMILES | EC50 [µM]
CC(C)(C)c1cc(O)ccc1O [E319] | 57.5
O=c1ccc2ccc(O)cc2o1 [UMBELLIFERONE] | > 400
O=c1ccc2cc(O)ccc2o1 [6-HYDROXYCOUMARIN] | > 400
O=c1ccc2cc(OC/C(=N\O)c3ccccc3)ccc2o1 | > 400
O=c1oc2ccccc2cc1OC/C(=N\O)c1ccc(F)cc1 | > 400
O=c1cc(O)c2ccccc2o1 [4-HYDROXYCOUMARINS] | 351
O=c1oc2ccccc2cc1O [3-HYDROXYCOUMARIN] | 65.8

Target: T1, Nuclear factor erythroid 2-related factor 2 (Homo sapiens)
Assay: Activation of Nrf2 in human HSC3-ARE9 cells assessed as increase of ARE-mediated luciferase expression after 24 hrs
Assay type: cell-based
Conditions: not given

SMILES | Activity
O=c1ccc2cc(OC/C(=N\O)c3ccccc3)ccc2o1 | Dose-dependent effect
O=c1oc2ccccc2cc1OC/C(=N\O)c1ccc(F)cc1 | Dose-dependent effect
